Results as given in US20250195521A1 (Revolution Medicines, Inc., priority 2020, published 2025).

Experiments:
Type in all cases: biochemical
KRAS G13D = KRAS G13D (Homo sapiens (Human), UniProt P01116+P62937, G13D); test: Ras-Raf disruption/FRET/MOA assay, KRAS G13D
Procedure, shortened: (§1)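 TR-FRET of nucleotide-loaded (GMP-PNP) His6-Ras (12.5 nM) binding to GST-BRAF RBD (50 nM) with Cyclophilin A (25 μM) in HEPES pH 7.3 buffer; 10-point 3-fold compound series from 30 μM, 3 h at 25 °C, then anti-His Eu/anti-GST APC 1.5 h. IC50 from decreased FRET ratio vs DMSO.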

KRAS G12S = KRAS G12S (Homo sapiens (Human), UniProt P01116+P62937, G12S); test: Ras-Raf disruption/FRET/MOA assay, KRAS G12S
Procedure, shortened: as §1

KRAS G13C = KRAS G13C (Homo sapiens (Human), UniProt P01116+P62937, G13C); test: Ras-Raf disruption/FRET/MOA assay, KRAS G13C
Procedure, shortened: as §1

KRAS G12V = KRAS G12V (Homo sapiens (Human), UniProt P01116+P62937, G12V); test: Ras-Raf disruption/FRET/MOA assay, KRAS G12V
Procedure, shortened: as §1

KRAS G12D = KRAS G12D (Homo sapiens (Human), UniProt P01116+P62937, G12D); test: Ras-Raf disruption/FRET/MOA assay, KRAS G12D
Procedure, shortened: as §1

KRAS WT = KRAS WT (Homo sapiens (Human), UniProt P01116+P62937); test: Ras-Raf disruption/FRET/MOA assay, KRAS WT
Procedure, shortened: as §1

KRAS G12C = KRAS G12C (Homo sapiens (Human), UniProt P01116+P62937, G12C); test: Ras-Raf disruption/FRET/MOA assay, KRAS G12C
Procedure, shortened: as §1

KRAS Q61H = KRAS Q61H (Homo sapiens (Human), UniProt P01116+P62937, Q61H); test: Ras-Raf disruption/FRET/MOA assay, KRAS Q61H
From the text: (§2) Disruption of B-Raf Ras-Binding Domain (BRAF^RBD) Interaction with K-Ras by Compounds of the Invention (Also Called a FRET Assay or an MOA Assay)
(§3) Note—The following protocol describes a procedure for monitoring disruption of K-Ras G12C (GMP-PNP) binding to BRAF^RBD by a compound of the invention. This protocol may also be executed substituting other Ras proteins or nucleotides, such as K-Ras G12D and K-Ras G13D.
(§4) The purpose of this biochemical assay was to measure the ability of test compounds to facilitate ternary complex formation between a nucleotide-loaded K-Ras isoform and Cyclophilin A; the resulting ternary complex disrupts binding to a BRAF^RBD construct, inhibiting K-Ras signaling through a RAF effector. Data is reported as IC50 values.
(§5) In assay buffer containing 25 mM HEPES pH 7.3, 0.002% Tween20, 0.1% BSA, 100 mM NaCl and 5 mM MgCl2, tagless Cyclophilin A, His6-K-Ras-GMPPNP, and GST-BRAF^RBD were combined in a 384-well assay plate at final concentrations of 25 μM, 12.5 nM, and 50 nM, respectively. Compound was present in plate wells as a 10-point 3-fold dilution series starting at a final concentration of 30 μM. After incubation at 25° C. for 3 hours, a mixture of anti-His Eu—W1024 and anti-GST allophycocyanin was then added to assay sample wells at final concentrations of 10 nM and 50 nM, respectively, and the reaction incubated for an additional 1.5 hours. […] Compounds that facilitate disruption of a K-Ras: RAF complex were identified as those eliciting a decrease in the TR-FRET ratio relative to DMSO control wells.

NRAS G12C = NRAS G12C (Homo sapiens (Human), UniProt P01111+P62937, G12C); test: Ras-Raf disruption/FRET/MOA assay, NRAS G12C
Procedure, shortened: as §1

NRAS WT = NRAS WT (Homo sapiens (Human), UniProt P01111+P62937); test: Ras-Raf disruption/FRET/MOA assay, NRAS WT
From the text: as §2, §3, §4, §5

NRAS Q61K = NRAS Q61K (Homo sapiens (Human), UniProt P01111+P62937, Q61K); test: Ras-Raf disruption/FRET/MOA assay, NRAS Q61K
From the text: as §2, §3, §4, §5

NRAS Q61R = NRAS Q61R (Homo sapiens (Human), UniProt P01111+P62937, Q61R); test: Ras-Raf disruption/FRET/MOA assay, NRAS Q61R
From the text: as §2, §3, §4, §5

NRAS WT, sequence (P01111 whole entry): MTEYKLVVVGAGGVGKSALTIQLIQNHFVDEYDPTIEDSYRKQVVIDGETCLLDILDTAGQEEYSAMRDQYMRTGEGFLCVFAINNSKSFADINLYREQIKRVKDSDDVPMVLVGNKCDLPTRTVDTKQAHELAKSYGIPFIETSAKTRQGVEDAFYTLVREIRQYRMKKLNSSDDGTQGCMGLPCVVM
NRAS WT, sequence (P62937 whole entry): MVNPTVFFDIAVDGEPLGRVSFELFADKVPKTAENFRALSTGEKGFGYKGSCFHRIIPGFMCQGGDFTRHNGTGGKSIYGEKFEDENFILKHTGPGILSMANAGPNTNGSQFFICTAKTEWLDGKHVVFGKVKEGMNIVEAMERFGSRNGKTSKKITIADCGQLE
NRAS Q61K, sequence (P01111 whole entry Q61K): as the sequence (P01111 whole entry) above, with Q61K counted along it
NRAS Q61K, sequence (P62937 whole entry): as the sequence (P62937 whole entry) above
KRAS G13D, sequence (P01116 other isoform, or with tags, fused parts or gaps G13D): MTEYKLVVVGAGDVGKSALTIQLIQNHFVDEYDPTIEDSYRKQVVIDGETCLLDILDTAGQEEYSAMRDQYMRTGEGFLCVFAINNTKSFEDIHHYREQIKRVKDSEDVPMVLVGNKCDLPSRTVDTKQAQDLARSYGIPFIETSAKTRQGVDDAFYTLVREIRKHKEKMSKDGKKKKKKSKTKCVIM
KRAS G13D, sequence (P62937 whole entry): as the sequence (P62937 whole entry) above
KRAS G13C, sequence (P01116 other isoform, or with tags, fused parts or gaps G13C): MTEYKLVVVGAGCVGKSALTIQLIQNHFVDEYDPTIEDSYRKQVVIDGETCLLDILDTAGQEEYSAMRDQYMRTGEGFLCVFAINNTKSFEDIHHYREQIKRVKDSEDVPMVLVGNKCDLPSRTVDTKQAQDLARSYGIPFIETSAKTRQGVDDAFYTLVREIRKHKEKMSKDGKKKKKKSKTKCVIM
KRAS G13C, sequence (P62937 whole entry): as the sequence (P62937 whole entry) above
NRAS Q61R, sequence (P01111 whole entry Q61R): as the sequence (P01111 whole entry) above, with Q61R counted along it
NRAS Q61R, sequence (P62937 whole entry): as the sequence (P62937 whole entry) above
KRAS WT, sequence (P01116 other isoform, or with tags, fused parts or gaps): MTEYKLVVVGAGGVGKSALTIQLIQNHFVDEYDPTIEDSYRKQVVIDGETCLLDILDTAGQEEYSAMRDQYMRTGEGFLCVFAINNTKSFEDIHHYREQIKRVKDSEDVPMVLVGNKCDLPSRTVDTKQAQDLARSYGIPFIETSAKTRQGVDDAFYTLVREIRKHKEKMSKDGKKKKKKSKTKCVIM
KRAS WT, sequence (P62937 whole entry): as the sequence (P62937 whole entry) above
KRAS G12D, sequence (P01116 other isoform, or with tags, fused parts or gaps G12D): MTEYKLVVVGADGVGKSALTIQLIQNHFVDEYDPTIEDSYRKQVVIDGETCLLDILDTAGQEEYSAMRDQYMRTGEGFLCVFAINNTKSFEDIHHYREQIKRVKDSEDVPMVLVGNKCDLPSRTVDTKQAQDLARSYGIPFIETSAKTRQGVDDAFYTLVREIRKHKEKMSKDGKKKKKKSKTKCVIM
KRAS G12D, sequence (P62937 whole entry): as the sequence (P62937 whole entry) above
KRAS G12C, sequence (P01116-2 other isoform, or with tags, fused parts or gaps G12C): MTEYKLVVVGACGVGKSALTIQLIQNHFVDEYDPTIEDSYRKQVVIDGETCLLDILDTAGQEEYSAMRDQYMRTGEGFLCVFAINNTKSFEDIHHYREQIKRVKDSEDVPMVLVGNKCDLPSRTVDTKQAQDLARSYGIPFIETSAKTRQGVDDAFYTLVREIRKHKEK
KRAS G12C, sequence (P62937 whole entry): as the sequence (P62937 whole entry) above
KRAS G12S, sequence (P01116 other isoform, or with tags, fused parts or gaps G12S): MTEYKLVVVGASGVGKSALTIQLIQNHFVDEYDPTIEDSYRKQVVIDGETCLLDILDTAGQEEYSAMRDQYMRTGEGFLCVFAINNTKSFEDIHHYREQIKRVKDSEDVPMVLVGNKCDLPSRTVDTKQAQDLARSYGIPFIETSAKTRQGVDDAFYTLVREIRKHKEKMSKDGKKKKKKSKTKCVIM
KRAS G12S, sequence (P62937 whole entry): as the sequence (P62937 whole entry) above
KRAS G12V, sequence (P01116 other isoform, or with tags, fused parts or gaps G12V): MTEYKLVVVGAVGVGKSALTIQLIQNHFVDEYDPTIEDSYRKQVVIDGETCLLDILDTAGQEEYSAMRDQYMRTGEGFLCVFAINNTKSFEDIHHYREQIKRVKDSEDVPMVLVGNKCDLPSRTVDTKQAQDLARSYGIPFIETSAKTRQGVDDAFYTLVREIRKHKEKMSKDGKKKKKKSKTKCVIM
KRAS G12V, sequence (P62937 whole entry): as the sequence (P62937 whole entry) above
KRAS Q61H, sequence (P01116 other isoform, or with tags, fused parts or gaps Q61H): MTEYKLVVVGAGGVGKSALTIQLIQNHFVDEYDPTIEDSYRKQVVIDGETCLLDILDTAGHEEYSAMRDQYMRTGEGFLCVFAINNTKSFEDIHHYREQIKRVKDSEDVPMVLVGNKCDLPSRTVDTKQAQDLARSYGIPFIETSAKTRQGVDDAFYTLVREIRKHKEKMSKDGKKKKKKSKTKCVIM
KRAS Q61H, sequence (P62937 whole entry, the tested form may be a part): as the sequence (P62937 whole entry) above
NRAS G12C, sequence (P01111 whole entry G12C): as the sequence (P01111 whole entry) above, with G12C counted along it
NRAS G12C, sequence (P62937 whole entry): as the sequence (P62937 whole entry) above

Structure (SMILES) | IC50 (KRAS G13D) [nM] | IC50 (KRAS G12S) [nM] | IC50 (KRAS G13C) [nM] | IC50 (KRAS G12V) [nM] | IC50 (KRAS G12D) [nM] | IC50 (KRAS WT) [nM] | IC50 (KRAS G12C) [nM] | IC50 (KRAS Q61H) [nM] | IC50 (NRAS G12C) [nM] | IC50 (NRAS WT) [nM] | IC50 (NRAS Q61K) [nM] | IC50 (NRAS Q61R) [nM]
CCn1c(-c2cccnc2[C@H](C)OC)c2c3cc(ccc31)-c1cc(O)cc(c1)C[C@H](NC(=O)[C@H](C(C)C)N(C)C(=O)[C@]13C[C@H]1CCN3C(=O)[C@H]1CN1)C(=O)N1CCC[C@H](N1)C(=O)OCC(C)(C)C2 [Example 244] | 100 to 1000 | 100 to 1000 | 100 to 1000 | 100 to 1000 | 100 to 1000 | 100 to 1000 | 10 to 100 | 10 to 100 | 10 to 100 | 100 to 1000 | 1000 to 10000 | 100 to 1000
CCn1c(-c2cccnc2[C@H](C)OC)c2c3cc(ccc31)-c1cc(O)cc(c1)C[C@H](NC(=O)[C@H](C(C)C)N(C)C(=O)[C@@H]1CO[C@H](C)CN1C(=O)[C@H]1CN1)C(=O)N1CCC[C@H](N1)C(=O)OCC(C)(C)C2 [Example 248] | 10 to 100 | 10 to 100 | 10 to 100 | 10 to 100 | 10 to 100 | 10 to 100 | 10 to 100 | 10 to 100 | 10 to 100 | 10 to 100 | 100 to 1000 | 100 to 1000
CCn1c(-c2cccnc2[C@H](C)OC)c2c3cc(ccc31)-c1cc(O)cc(c1)C[C@H](NC(=O)[C@H](C(C)C)N(C)C(=O)[C@@H]1CO[C@H](C)CN1C(=O)[C@@H]1CN1)C(=O)N1CCC[C@H](N1)C(=O)OCC(C)(C)C2 [Example 249] | 10 to 100 | 10 to 100 | 10 to 100 | 10 to 100 | 10 to 100 | 10 to 100 | < 10 | < 10 | < 10 | 10 to 100 | 10 to 100 | 10 to 100
